Columns and labels:
[1] = target: T1, membrane bound glucose dehydrogenase from E. coli, the Gcd (Escherichia coli, UniProt P15877); experiment: Substrate specificity and pH optima of membrane bound glucose dehydrogenase Gcd (DCPIP method); type: biochemical; details: for Activity of E. coli BL21(DE3) pET30/Gcd on substrate, lysate / Activity of E. coli BL21(DE3) pET30/Gcd on substrate, resting whole cell: 50 mM substrate, 5 μM PQQ, 10 mM MgCl2
T1 construct: made in house; host or cells: E. coli BL21(DE3) carrying pET30/Gcd; not purified (resting whole cells or lysate), reconstituted with PQQ and MgCl2
T1 sequence (P15877 1-796): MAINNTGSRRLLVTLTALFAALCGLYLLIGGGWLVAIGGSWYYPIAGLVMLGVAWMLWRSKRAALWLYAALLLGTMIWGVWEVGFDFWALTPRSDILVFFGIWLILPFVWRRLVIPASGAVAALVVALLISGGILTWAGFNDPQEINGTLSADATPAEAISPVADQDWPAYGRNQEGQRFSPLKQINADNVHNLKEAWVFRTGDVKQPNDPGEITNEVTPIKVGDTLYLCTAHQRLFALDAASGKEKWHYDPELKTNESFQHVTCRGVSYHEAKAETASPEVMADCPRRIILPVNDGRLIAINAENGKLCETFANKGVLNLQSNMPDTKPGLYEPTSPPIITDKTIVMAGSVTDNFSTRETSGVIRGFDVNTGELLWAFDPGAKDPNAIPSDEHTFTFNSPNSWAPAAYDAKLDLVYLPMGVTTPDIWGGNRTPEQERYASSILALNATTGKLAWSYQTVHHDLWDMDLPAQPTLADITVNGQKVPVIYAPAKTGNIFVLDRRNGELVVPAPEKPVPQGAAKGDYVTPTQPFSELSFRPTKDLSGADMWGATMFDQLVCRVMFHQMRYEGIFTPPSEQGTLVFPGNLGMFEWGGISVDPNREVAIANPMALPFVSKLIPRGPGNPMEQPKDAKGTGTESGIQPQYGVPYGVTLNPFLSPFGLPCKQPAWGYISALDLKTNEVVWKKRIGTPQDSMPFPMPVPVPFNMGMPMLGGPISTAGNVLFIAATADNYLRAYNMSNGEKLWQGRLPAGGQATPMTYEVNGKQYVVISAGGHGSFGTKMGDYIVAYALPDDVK
Experimental: To investigate substrate specificity and pH optima of said E. coli membrane aldose dehydrogenase the above mentioned experiments were performed on the catalyst E. coli BL21 pET30/Gcd.

[2] = target: T2, E. coli YliI aldose dehydrogenase (Escherichia coli, UniProt P75804); experiment: Substrate specificity and pH optima of E. coli YliI aldose dehydrogenase (DCPIP method); type: biochemical; details: 50 mM substrate, 5 μM PQQ, 10 mM MgCl2
T2 construct: made in house; host or cells: E. coli BL21(DE3) carrying pET30/YliI; not purified (resting whole cells or cell free lysate), reconstituted with PQQ and MgCl2
T2 sequence (P75804 21-371 A204V): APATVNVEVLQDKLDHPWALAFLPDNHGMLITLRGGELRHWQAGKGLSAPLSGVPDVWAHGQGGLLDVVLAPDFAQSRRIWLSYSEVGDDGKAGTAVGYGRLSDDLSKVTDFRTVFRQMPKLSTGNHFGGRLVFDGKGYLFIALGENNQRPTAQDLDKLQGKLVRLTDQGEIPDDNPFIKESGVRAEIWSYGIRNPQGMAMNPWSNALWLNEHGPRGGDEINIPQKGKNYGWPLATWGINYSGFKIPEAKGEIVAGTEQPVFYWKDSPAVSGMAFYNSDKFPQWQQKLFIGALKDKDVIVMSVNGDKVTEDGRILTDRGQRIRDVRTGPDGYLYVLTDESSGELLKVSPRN
Experimental: (§1) Final volume of reaction mixture was 200 μL, all components were dissolved in phosphate buffer pH 8.0.
(§2) The catalyst E. coli BL21 pET30/YliI culture obtained either as resting whole cell catalyst (obtained undertaking Procedure 1C) or as lysate (as described in Example 2). The initial pH value of reaction mixture was 8.0. All tested solutions were made in triplicates.
(§3) The second reaction mixture was prepared identically to the above with a sole difference: the pH value of assembled mixture being 6.0 (all compounds of reaction mixture were dissolved in phosphate buffer pH 6.0 and the initial pH value of reaction mixture was thus 6.0). All tested solutions were made in triplicates.
(§4) Experiment was performed as described in Example 11. In the table below are shown activities of “analyzed material” (abs[mAU min^−1 mg^−1])

[3] = target: T3, E. coli YliI aldose dehydrogenase (Escherichia coli, UniProt P75804, A204V); experiment: as above; type: biochemical; details: for Activity of E. coli BL21(DE3) pET30/Ylil on substrate, resting whole cell: 50 mM substrate, 5 μM PQQ, 10 mM MgCl2
T3 construct: made in house; host or cells: E. coli BL21(DE3) carrying pET30/YliI; not purified (resting whole cells or cell free lysate), reconstituted with PQQ and MgCl2
T3 sequence (P75804 21-371 A204V): as above
Experimental: as §1, §2, §3, §4

[4] = test system: whole cell catalyst E. coli BL21 pET30/Gcd; experiment: Whole cell catalysis capability in bioreactor using pO2 sensor; type: cell-based; details: pH 6.2, 37° C., 5 μM PQQ, 10 mM MgCl2
Experimental: Laboratory bioreactors Infors ISF100 with maximal volume of 2 L were used for determination of whole cell catalysis capability of E. coli aldose dehydrogenases. The reactors were stirred, aerated, temperature and pH controlled as described below. When whole cell catalysts bearing holo aldose dehydrogenases were exposed to various substrates, unusual consumption of O2 appeared.
Experiments were performed using whole cell catalyst E. coli BL21 pET30/Gcd (procedure of preparation in described in Example 1, Procedure 1A and moreover in Example 25).
Whole cell catalysts were dissolved in phosphate buffer (50 mM KH2PO4, 150 mM NaCl, pH 6.2) to concentrations of 5 g/L, 10 g/L and 20 g/L to the final volume ([…] in the bioreactor.
The initial process parameters before substrate was added were as follows: 37° C., air flow rate 1.0 L/min (1.0 VVM), stirrer speed 1000 rpm, pH 6.2 and the dissolved oxygen concentration was kept at ≧80% of saturation. 5 μM PQQ and 10 mM MgCl2 were provided into bioreactor broth. Feeding solution were 12.5% (v/v) ammonium hydroxide solution and the silicone antifoam compound synperonic antifoam (Sigma, A-5551) which were fed continuously.
The system described above is very complex in terms of mathematical description of dissolved oxygen levels over the time. On the one hand these are depending on the kLa (vessel properties, stirring, aeration, medium, temperature etc) and enzymatic kinetics on the aldose dehydrogenase on the other hand. In addition the oxygen probe delay kinetics play an important role. We have therefore found empirically, that oxygen consumption in the phase after the pulse feed of the substrate till the minimum of the dissolved oxygen in this dynamic system is best correlated to quadratic equation. A good indicator of the activity potential of the studied biocatalyst is the slope of this quadratic equation, measured at specific time value (for example t=15 seconds). The slope was calculated from the first derivative of the quadratic equation.

[5] = target: glucose oxidase from A. niger (Aspergillus niger, UniProt P13006); details: cited from earlier work
glucose oxidase from A. niger, sequence (P13006 17-605): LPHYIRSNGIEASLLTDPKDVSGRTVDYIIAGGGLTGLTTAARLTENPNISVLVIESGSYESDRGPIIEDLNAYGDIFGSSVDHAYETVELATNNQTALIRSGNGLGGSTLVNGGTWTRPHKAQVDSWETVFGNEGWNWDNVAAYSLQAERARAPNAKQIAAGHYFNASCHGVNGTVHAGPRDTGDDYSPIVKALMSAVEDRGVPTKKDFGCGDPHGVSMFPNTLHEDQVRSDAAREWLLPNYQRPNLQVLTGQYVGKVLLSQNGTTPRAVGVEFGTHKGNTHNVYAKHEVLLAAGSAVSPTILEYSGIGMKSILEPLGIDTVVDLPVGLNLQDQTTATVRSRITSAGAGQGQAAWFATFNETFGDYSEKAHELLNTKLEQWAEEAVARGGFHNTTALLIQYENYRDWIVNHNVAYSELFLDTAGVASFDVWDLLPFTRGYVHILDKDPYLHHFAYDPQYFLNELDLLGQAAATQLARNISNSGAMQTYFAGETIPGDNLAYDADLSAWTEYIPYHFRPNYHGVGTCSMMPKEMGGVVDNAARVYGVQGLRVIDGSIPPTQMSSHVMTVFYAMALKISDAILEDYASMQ

[6] = whole cell catalyst BL21 (DE3) pET30/Gcd 5 g/L
[7] = whole cell catalyst BL21 (DE3) pET30/Gcd 10 g/L
[8] = whole cell catalyst BL21 (DE3) pET30/Gcd 20 g/L

CC(=O)OC[C@@H]1C[C@@H](O)CC(O)O1 (stereo partly drawn)
Substrate concentration above which slight substrate inhibition to the reaction rate was observed ([1]; E. coli BL21 pET30/Gcd, pH 6.0): above 60 g/L | DCPIP discoloration rate compared with D-glucose or D-galactose as substrate ([1]; E. coli BL21 pET30/Gcd, pH 6.0, 2.5-10 g/L substrate): about two times slower | Activity of E. coli BL21(DE3) pET30/Gcd on substrate, lysate ([1]; pH 6.0): 2403 abs[mAU min^−1 mg^−1] | Activity of E. coli BL21(DE3) pET30/Gcd on substrate, resting whole cell ([1]; pH 6.0): 2403 abs[mAU min^−1 mg^−1] | Activity of E. coli BL21(DE3) pET30/Gcd on substrate, lysate ([1]; pH 8.0): 1013 abs[mAU min^−1 mg^−1] | Activity of E. coli BL21(DE3) pET30/Gcd on substrate, resting whole cell ([1]; pH 8.0): 1105 abs[mAU min^−1 mg^−1] | Activity of E. coli BL21(DE3) pET30/Ylil on substrate, lysate ([2]; pH 6.0): 273 abs[mAU min^−1 mg^−1] | Activity of E. coli BL21(DE3) pET30/Ylil on substrate, lysate ([2]; pH 8.0): 1913 abs[mAU min^−1 mg^−1] | Substrate concentration above which slight substrate inhibition to the reaction rate was observed ([3]; E. coli BL21 pET30/YliI, pH 8.0): above 40 g/L | DCPIP discoloration rate compared with D-glucose or D-galactose as substrate ([3]; E. coli BL21 pET30/YliI, pH 8.0, 2.5-10 g/L substrate): about two times faster | Activity of E. coli BL21(DE3) pET30/Ylil on substrate, resting whole cell ([3]; pH 6.0): 270 abs[mAU min^−1 mg^−1] | Activity of E. coli BL21(DE3) pET30/Ylil on substrate, resting whole cell ([3]; pH 8.0): 1897 abs[mAU min^−1 mg^−1] | Slope of quadratic equation of oxygen consumption after substrate pulse [4, 6]: 38652 | Slope of quadratic equation of oxygen consumption after substrate pulse [4, 7]: 87425 | Slope of quadratic equation of oxygen consumption after substrate pulse [4, 8]: 163562

CC(=O)OC[C@@H]1C[C@@H](O)CC(=O)O1
Added product concentration above which slight reduction in reaction rates was observed ([1]; E. coli BL21 pET30/Gcd, pH 6.0, in addition of 10 g/L substrate): more than 55 g/L | Added product concentration above which slight reduction in reaction rates was observed ([3]; E. coli BL21 pET30/YliI, pH 8.0, in addition of 10 g/L substrate): more than 35 g/L

CO[C@@H]([C@H](O)[C@@H](O)C=O)[C@H](O)CO [4-O-methyl-D-glucose]
Reaction rate of oxidation by glucose oxidase, glucose as reference (100%) [5]: 15%

C[C@@H](O)[C@@H](O)[C@H](O)[C@@H](O)C=O [6-deoxy-D-glucose]
Reaction rate of oxidation by glucose oxidase, glucose as reference (100%) [5]: 10%

OCC(O)CO [glycerol]
Activity of E. coli BL21(DE3) pET30/Gcd on substrate, lysate ([1]; pH 6.0): 202 abs[mAU min^−1 mg^−1] | Activity of E. coli BL21(DE3) pET30/Gcd on substrate, resting whole cell ([1]; pH 6.0): 215 abs[mAU min^−1 mg^−1] | Activity of E. coli BL21(DE3) pET30/Gcd on substrate, lysate ([1]; pH 8.0): 100 abs[mAU min^−1 mg^−1] | Activity of E. coli BL21(DE3) pET30/Gcd on substrate, resting whole cell ([1]; pH 8.0): 102 abs[mAU min^−1 mg^−1] | Activity of E. coli BL21(DE3) pET30/Ylil on substrate, lysate ([2]; pH 6.0): 70 abs[mAU min^−1 mg^−1] | Activity of E. coli BL21(DE3) pET30/Ylil on substrate, lysate ([2]; pH 8.0): 235 abs[mAU min^−1 mg^−1] | Activity of E. coli BL21(DE3) pET30/Ylil on substrate, resting whole cell ([3]; pH 6.0): 85 abs[mAU min^−1 mg^−1] | Activity of E. coli BL21(DE3) pET30/Ylil on substrate, resting whole cell ([3]; pH 8.0): 247 abs[mAU min^−1 mg^−1]

O=C[C@H](O)[C@@H](O)[C@H](O)[C@H](O)CO [D-glucose]
Activity of E. coli BL21(DE3) pET30/Gcd on substrate, lysate ([1]; pH 6.0): 2830 abs[mAU min^−1 mg^−1] | Activity of E. coli BL21(DE3) pET30/Gcd on substrate, resting whole cell ([1]; pH 6.0): 2840 abs[mAU min^−1 mg^−1] | Activity of E. coli BL21(DE3) pET30/Gcd on substrate, lysate ([1]; pH 8.0): 1305 abs[mAU min^−1 mg^−1] | Activity of E. coli BL21(DE3) pET30/Gcd on substrate, resting whole cell ([1]; pH 8.0): 1260 abs[mAU min^−1 mg^−1] | Activity of E. coli BL21(DE3) pET30/Ylil on substrate, lysate ([2]; pH 6.0): 210 abs[mAU min^−1 mg^−1] | Activity of E. coli BL21(DE3) pET30/Ylil on substrate, lysate ([2]; pH 8.0): 321 abs[mAU min^−1 mg^−1] | Activity of E. coli BL21(DE3) pET30/Ylil on substrate, resting whole cell ([3]; pH 6.0): 350 abs[mAU min^−1 mg^−1] | Activity of E. coli BL21(DE3) pET30/Ylil on substrate, resting whole cell ([3]; pH 8.0): 356 abs[mAU min^−1 mg^−1] | Slope of quadratic equation of oxygen consumption after substrate pulse [4, 6]: 45813 | Slope of quadratic equation of oxygen consumption after substrate pulse [4, 7]: 114771 | Slope of quadratic equation of oxygen consumption after substrate pulse [4, 8]: 230631

O=CC[C@@H](O)[C@H](O)[C@H](O)CO [2-deoxy-D-glucose]
Reaction rate of oxidation by glucose oxidase, glucose as reference (100%) [5]: 20-30%

From US20130337485A1, “ENZYMATIC SYNTHESIS OF ACTIVE PHARMACEUTICAL INGREDIENT AND INTERMEDIATES THEREOF” (LEK PHARMACEUTICALS D.D, priority 2010, published 2013)
